From PMC12892976, “Alkylation-based optimization of antifungal FPPS inhibitors yields a potent, broad-spectrum lipophilic zoledronate derivative” (mBio, 2025)
Converted amounts (≈) assume the structure as drawn. Where two headings read alike, the source gives them in different places.

What was measured:
Saccharomyces cerevisiae [1] = experiment: MIC/MFC broth microdilution (CLSI); assay type: cell-based; details: Saccharomyces cerevisiae S288c
Method: (§1) Antifungal susceptibility was determined by broth microdilution according to the CLSI guidelines described in M27-Ed4 ([16]). […] MFC was determined by back-plating drug-treated cultures from MIC broths onto SDA plates. The MFC was defined as the lowest concentration from which no colonies could be cultured.

Candida albicans [2] = experiment: MIC/MFC broth microdilution (CLSI); assay type: cell-based; details: Candida albicans SC5314
Method: as §1

[3] = tested on: Cryptococcus deuterogattii; experiment: checkerboard drug interaction (FICI, MICc);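 for all read-outs here: simplified diagonal checkerboard screen pairing antifungal drugs with FPPS inhibitors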; assay type: cell-based; details: C. deuterogattii; for INH FD (MIC-MICc fold decrease): fold decrease of inhibitor MIC
Method: (§2) Drug interactions between antifungals and FPPS inhibitors were investigated using a simplified checkerboard diagonal screening method ([45]). […] FICIs were determined according to the Loewe additivity model ([17]).

Cryptococcus neoformans [4] = experiment: checkerboard drug interaction (FICI, MICc);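 for all read-outs here: antifungal plus FPPS inhibitor pairs tested against Cryptococcus neoformans by simplified diagonal checkerboard screening, FICI computed under the Loewe additivity model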; assay type: cell-based; details: C. neoformans; for INH FD (MIC-MICc fold decrease): fold decrease of inhibitor MIC
Method: as §2

Saccharomyces cerevisiae [5] = experiment: checkerboard drug interaction (FICI, MICc); assay type: cell-based; set-up: INH MICc / INH MICc (ITR:INH) / INH MICc (KET:INH) / INH MICc (FLC:INH): unit not given beside the values;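 note: simplified diagonal checkerboard screen pairing antifungals with FPPS inhibitors, FICI calculated under the Loewe additivity model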
Candida glabrata [6] = experiment: checkerboard drug interaction (FICI, MICc);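 for all read-outs here: simplified diagonal checkerboard screen pairing antifungals with FPPS inhibitors, FICI calculated under the Loewe additivity model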; assay type: cell-based; details: C. glabrata; for INH FD (MIC-MICc fold decrease): fold decrease of inhibitor MIC
Method: as §2

Candida albicans [7] = experiment: checkerboard drug interaction (FICI, MICc);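 for all read-outs here: antifungal plus FPPS inhibitor combinations on Candida albicans tested by a simplified diagonal checkerboard screen, with FICI calculated under the Loewe additivity model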; assay type: cell-based; details: C. albicans; for INH FD (MIC-MICc fold decrease): fold decrease of inhibitor MIC
Method: as §2

Aspergillus flavus [8] = experiment: checkerboard drug interaction (FICI, MICc);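 note: simplified diagonal checkerboard screen pairing azole antifungals with FPPS inhibitors, FICI calculated under the Loewe additivity model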; assay type: cell-based; set-up: INH MICc (KET:INH) / INH MICc (FLC:INH): unit not given beside the values; details: A. flavus
Aspergillus fumigatus [9] = experiment: checkerboard drug interaction (FICI, MICc); assay type: cell-based;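 note: simplified diagonal checkerboard screen pairing antifungals with FPPS inhibitors against Aspergillus fumigatus, with FICI calculated under the Loewe additivity model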
Method: as §2

Trichophyton rubrum [10] = experiment: checkerboard drug interaction (FICI, MICc);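 note: simplified diagonal checkerboard screen pairing azole antifungals with FPPS inhibitors, FICI calculated under the Loewe additivity model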; assay type: cell-based; details: T. rubrum
Method: as §2

HEK-293T cells = experiment: MTT reduction cytotoxicity assay; assay type: cell-based; details: Homo sapiens, HEK-293T, 72 h, MTT, 72 h
eight fungal species [11] = experiment: MIC/MFC summary across the eight fungal species of Table 1; assay type: cell-based
Method: The antifungal activity of these compounds was evaluated according to CLSI guidelines ([16]).

eight fungal species [12] = experiment: checkerboard interaction with azoles, summary across the eight species; assay type: cell-based
Text: Synergy between lipophilic FPPS inhibitors and azole antifungals was investigated by determining the fractional inhibitory concentration index (FICI) (Fig. 2; Table S1 Fig. S1) ([17]). […]. Derivatives PLA9 and 11, and PDA9, 11, and 12 antagonized azoles in C. albicans, C. neoformans, and C. deuterogattii, yet were largely synergistic in C. glabrata and S. cerevisiae. […].

[13] = tested on: Cryptococcus deuterogattii; experiment: MIC/MFC broth microdilution (CLSI); details: Cryptococcus deuterogattii;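 note: broth microdilution per CLSI M27-Ed4. MFC is the lowest concentration yielding no colonies when MIC broths are subcultured onto SDA plates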
Method: as §1

Cryptococcus neoformans [14] = experiment: MIC/MFC broth microdilution (CLSI); details: Cryptococcus neoformans;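 note: susceptibility testing followed the CLSI M27-Ed4 broth microdilution document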
Method: as §1

Candida glabrata [15] = experiment: MIC/MFC broth microdilution (CLSI); details: Nakaseomyces glabratus, CBS138;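 note: broth microdilution following CLSI M27-Ed4, MFC taken as the lowest drug level yielding no growth once MIC wells were subcultured on SDA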
Method: as §1

Aspergillus flavus [16] = experiment: MIC/MFC broth microdilution (CLSI); details: ATCC204304
Method: as §1

Aspergillus fumigatus [17] = experiment: MIC/MFC broth microdilution (CLSI); details: ATCC204305
Method: as §1

Trichophyton rubrum [18] = experiment: MIC/MFC broth microdilution (CLSI); details: Trichophyton rubrum
Method: as §1

[19] = FLC:INH combination, MIC of the inhibitor in combination with FLC
[20] = FLC:INH combination, fold decrease of FLC MIC
[21] = ITR:INH combination, MIC of the inhibitor in combination with ITR
[22] = ITR:INH combination, fold decrease of ITR MIC
[23] = KET:INH combination, MIC of the inhibitor in combination with KET
[24] = KET:INH combination, fold decrease of KET MIC
[25] = Fractional Inhibitory Concentration Index, fluconazole + inhibitor
[26] = Fractional Inhibitory Concentration Index, itraconazole + inhibitor
[27] = Fractional Inhibitory Concentration Index, ketoconazole + inhibitor
[28] = MIC of the inhibitor in combination with fluconazole
[29] = MIC of the inhibitor in combination with itraconazole
[30] = MIC of the inhibitor in combination with ketoconazole
[31] = MIC-MICc fold decrease of fluconazole, negative = increase
[32] = MIC-MICc fold decrease of itraconazole, negative = increase
[33] = MIC-MICc fold decrease of ketoconazole, negative = increase
[34] = MIC-MICc fold decrease of the inhibitor, with fluconazole
[35] = MIC-MICc fold decrease of the inhibitor, with itraconazole
[36] = MIC-MICc fold decrease of the inhibitor, with ketoconazole

## CCCCCCCCCCCN1CCC[C@H]1C(=O)N[C@@H](CC(=O)OC)C(=O)OC [dmPLA11]
Saccharomyces cerevisiae [1]
  MFC: 8 µg/mL (≈ 19.4 µM)
  MIC: 8 µg/mL (≈ 19.4 µM)
Candida albicans [2]
  MFC: 32 µg/mL (≈ 77.6 µM)
  MIC: 32 µg/mL (≈ 77.6 µM)
[3]; FLC:INH combination
  FICI: 1.5
  INH FD (MIC-MICc fold decrease): 1
[3]; [19]
  INH MICc: 32
[3]; [20]
  FLC FD (MIC-MICc fold decrease): 2
[3]; ITR:INH combination
  FICI: 2
  INH FD (MIC-MICc fold decrease): 1
[3]; [21]
  INH MICc: 32
[3]; [22]
  ITR FD (MIC-MICc fold decrease): 1
[3]; KET:INH combination
  FICI: 1.13
  INH FD (MIC-MICc fold decrease): 1
[3]; [23]
  INH MICc: 32
[3]; [24]
  KET FD (MIC-MICc fold decrease): 8
Cryptococcus neoformans [4]; FLC:INH combination
  FICI: 1.5
  INH FD (MIC-MICc fold decrease): 2
Cryptococcus neoformans [4]; [19]
  INH MICc: 32
Cryptococcus neoformans [4]; [20]
  FLC FD (MIC-MICc fold decrease): 1
Cryptococcus neoformans [4]; ITR:INH combination
  FICI: 1.5
  INH FD (MIC-MICc fold decrease): 2
Cryptococcus neoformans [4]; [21]
  INH MICc: 32
Cryptococcus neoformans [4]; [22]
  ITR FD (MIC-MICc fold decrease): 1
Cryptococcus neoformans [4]; KET:INH combination
  FICI: 1.5
  INH FD (MIC-MICc fold decrease): 2
Cryptococcus neoformans [4]; [23]
  INH MICc: 32
Cryptococcus neoformans [4]; [24]
  KET FD (MIC-MICc fold decrease): 1
Saccharomyces cerevisiae [5]; [25]
  FICI (FLC:INH): 1
Saccharomyces cerevisiae [5]; [26]
  FICI (ITR:INH): 2.25
Saccharomyces cerevisiae [5]; [27]
  FICI (KET:INH): 1
Saccharomyces cerevisiae [5]; [28]
  INH MICc (FLC:INH): 4
Saccharomyces cerevisiae [5]; [29]
  INH MICc (ITR:INH): 2
Saccharomyces cerevisiae [5]; [30]
  INH MICc (KET:INH): 4
Saccharomyces cerevisiae [5]; [31]
  FLC FD (FLC:INH): 2
Saccharomyces cerevisiae [5]; [32]
  ITR FD (ITR:INH): -2
Saccharomyces cerevisiae [5]; [33]
  KET FD (KET:INH): 2
Saccharomyces cerevisiae [5]; [34]
  INH FD (FLC:INH): 2
Saccharomyces cerevisiae [5]; [35]
  INH FD (ITR:INH): 4
Saccharomyces cerevisiae [5]; [36]
  INH FD (KET:INH): 2
Candida glabrata [6]; FLC:INH combination
  FICI: 3
  INH FD (MIC-MICc fold decrease): 1
Candida glabrata [6]; [19]
  INH MICc: 16
Candida glabrata [6]; [20]
  FLC FD (MIC-MICc fold decrease): 1
Candida glabrata [6]; ITR:INH combination
  FICI: 1
  INH FD (MIC-MICc fold decrease): 4
Candida glabrata [6]; [21]
  INH MICc: 4
Candida glabrata [6]; [22]
  ITR FD (MIC-MICc fold decrease): 2
Candida glabrata [6]; KET:INH combination
  FICI: 1
  INH FD (MIC-MICc fold decrease): 4
Candida glabrata [6]; [23]
  INH MICc: 4
Candida glabrata [6]; [24]
  KET FD (MIC-MICc fold decrease): 2
Candida albicans [7]; FLC:INH combination
  FICI: 1.25
  INH FD (MIC-MICc fold decrease): 4
Candida albicans [7]; [19]
  INH MICc: 8
Candida albicans [7]; [20]
  FLC FD (MIC-MICc fold decrease): 1
Candida albicans [7]; ITR:INH combination
  FICI: 1.25
  INH FD (MIC-MICc fold decrease): 4
Candida albicans [7]; [21]
  INH MICc: 8
Candida albicans [7]; [22]
  ITR FD (MIC-MICc fold decrease): 1
Candida albicans [7]; KET:INH combination
  FICI: 1.25
  INH FD (MIC-MICc fold decrease): 4
Candida albicans [7]; [23]
  INH MICc: 8
Candida albicans [7]; [24]
  KET FD (MIC-MICc fold decrease): 1
Aspergillus flavus [8]; [25]
  FICI (FLC:INH): 2
Aspergillus flavus [8]; [26]
  FICI (ITR:INH): 1.25
Aspergillus flavus [8]; [27]
  FICI (KET:INH): 0.75
Aspergillus flavus [8]; [28]
  INH MICc (FLC:INH): 256
Aspergillus flavus [8]; [29]
  INH MICc (ITR:INH): 64
Aspergillus flavus [8]; [30]
  INH MICc (KET:INH): 64
Aspergillus flavus [8]; [31]
  FLC FD (FLC:INH): 1
Aspergillus flavus [8]; [32]
  ITR FD (ITR:INH): 1
Aspergillus flavus [8]; [33]
  KET FD (KET:INH): 2
Aspergillus flavus [8]; [34]
  INH FD (FLC:INH): 1
Aspergillus flavus [8]; [35]
  INH FD (ITR:INH): 4
Aspergillus flavus [8]; [36]
  INH FD (KET:INH): 4
Aspergillus fumigatus [9]; [25]
  FICI (FLC:INH): 1.25
Aspergillus fumigatus [9]; [26]
  FICI (ITR:INH): 0.53
Aspergillus fumigatus [9]; [27]
  FICI (KET:INH): 1.5
Aspergillus fumigatus [9]; [28]
  INH MICc (FLC:INH): 64
Aspergillus fumigatus [9]; [29]
  INH MICc (ITR:INH): 2
Aspergillus fumigatus [9]; [30]
  INH MICc (KET:INH): 64
Aspergillus fumigatus [9]; [31]
  FLC FD (FLC:INH): 4
Aspergillus fumigatus [9]; [32]
  ITR FD (ITR:INH): 2
Aspergillus fumigatus [9]; [33]
  KET FD (KET:INH): 2
Aspergillus fumigatus [9]; [34]
  INH FD (FLC:INH): 1
Aspergillus fumigatus [9]; [35]
  INH FD (ITR:INH): 32
Aspergillus fumigatus [9]; [36]
  INH FD (KET:INH): 1
Trichophyton rubrum [10]; [25]
  FICI (FLC:INH): 2.25
Trichophyton rubrum [10]; [26]
  FICI (ITR:INH): 2.13
Trichophyton rubrum [10]; [27]
  FICI (KET:INH): 2.25
Trichophyton rubrum [10]; [28]
  INH MICc (FLC:INH): 32
Trichophyton rubrum [10]; [29]
  INH MICc (ITR:INH): 32
Trichophyton rubrum [10]; [30]
  INH MICc (KET:INH): 32
Trichophyton rubrum [10]; [31]
  FLC FD (FLC:INH): 4
Trichophyton rubrum [10]; [32]
  ITR FD (ITR:INH): 8
Trichophyton rubrum [10]; [33]
  KET FD (KET:INH): 4
Trichophyton rubrum [10]; [34]
  INH FD (FLC:INH): -2
Trichophyton rubrum [10]; [35]
  INH FD (ITR:INH): -2
Trichophyton rubrum [10]; [36]
  INH FD (KET:INH): -2
HEK-293T cells; HEK-293T cells, read-out: IC50
  IC50: 9.09 µg/mL (≈ 22 µM)
HEK-293T cells; read-out: HEK IC50
  IC50: 9.09 µg/mL (≈ 22 µM)
Eight fungal species [11]; across eight species, read-out: Geometric mean MFC
  MFC: 83 µg/mL (≈ 201 µM)
Eight fungal species [11]; geometric mean across eight species, read-out: GM fungal MIC
  MIC: 29.3 µg/mL (≈ 71 µM)
Eight fungal species [11]; read-out: Geometric mean MIC
  MIC: 29.3 µg/mL (≈ 71 µM)
Eight fungal species [12]; any of the azole drugs in any species tested
  antagonism with azole drugs: no antagonism
Eight fungal species [12]; geometric mean MIC in combination with azoles
  GM fungal MICc: 18
[13]
  MFC: 128 µg/mL (≈ 310 µM)
  MIC: 8 µg/mL (≈ 19.4 µM)
Cryptococcus neoformans [14]
  MFC: 64 µg/mL (≈ 155 µM)
  MIC: 16 µg/mL (≈ 38.8 µM)
Candida glabrata [15]
  MFC: 64 µg/mL (≈ 155 µM)
  MIC: 32 µg/mL (≈ 77.6 µM)
Aspergillus flavus [16]
  MFC: > 128 µg/mL
  MIC: > 128 µg/mL
Aspergillus fumigatus [17]
  MFC: > 128 µg/mL
  MIC: 128 µg/mL (≈ 310 µM)
Trichophyton rubrum [18]
  MFC: > 128 µg/mL
  MIC: 16 µg/mL (≈ 38.8 µM)
